MIC data for seven compounds are collected here from DBAASP.

What all share (assay): ≥ marks a high value that may be exact or a test limit, other limits are often not marked, values filed in µg/mL are converted to µM
Assay [1] relates to Enterococcus faecalis ATCC 29212.
In assay [2] the test system is Enterococcus faecium.
Assay [3] relates to Staphylococcus aureus ATCC 25923.
Assay [4] concerns Staphylococcus aureus K35.
Assay [5] has as its system Staphylococcus aureus K52.
Assay [6] deals with Escherichia coli ATCC 25922.
In assay [7] the test system is Pseudomonas aeruginosa ATCC 10419.
Assay [8] concerns Pseudomonas aeruginosa ATCC 21625.
Assay [9] concerns Pseudomonas aeruginosa ATCC 21630.
The test system of assay [10] is Pseudomonas aeruginosa ATCC 27853.
In assay [11] the test system is Pseudomonas aeruginosa LCCE.
Assay [12] relates to Pseudomonas aeruginosa LCCI.
Assay [13] deals with Pseudomonas aeruginosa LCGE.
Assay [14] deals with Pseudomonas aeruginosa LC.
For assay [15], the system named is Salmonella enterica subsp. enterica serovar Typhimurium C77-31.
Assay [16] deals with Staphylococcus aureus ATCC 29213.
Assay [17] has as its system Staphylococcus epidermidis ATCC 12228.
Assay [18] deals with Botrytis cinerea 101.
The subject of assay [19] is Corynebacterium glutamicum ATCC 13032.
Assay [20] relates to Staphylococcus aureus ATCC 9144.
Assay [21] concerns Staphylococcus aureus MRSA-16.
The test system of assay [22] is Staphylococcus aureus MRSA-G.
The test system of assay [23] is Acinetobacter baumannii ATCC BAA-1794.
For assay [24], the system named is Escherichia coli ATCC 51659.
For assay [25], the system named is Pseudomonas aeruginosa PAO1.
In assay [26] the test system is Staphylococcus aureus ATCC 33592.
Assay [27] has as its system Acinetobacter baumannii CICC 22934.
Assay [28] deals with Bacillus cereus AS1.126.
Assay [29] deals with Enterobacter cloacae CGMCC 1.58.
Assay [30] concerns Enterococcus faecalis CGMCC 1.595.
Assay [31] concerns Enterococcus faecium CGMCC 1.2334.
Assay [32] concerns Escherichia coli AS1.349.
Assay [33] relates to Klebsiella aerogenes CGMCC 1.876.
In assay [34] the test system is Klebsiella pneumoniae subsp. pneumoniae CGMCC 1.176.
In assay [35] the test system is Lactococcus lactis AS1.1690.
Assay [36] concerns Proteus mirabilis CICC 22931.
The subject of assay [37] is Pseudomonas aeruginosa CGMCC 1.860.
In assay [38] the test system is Staphylococcus aureus AS1.72.
The test system of assay [39] is Escherichia coli K12 MG1655.
Assay [40] has as its system Staphylococcus aureus 68 HER 1049.

In brackets after ≈: the same amount, converted by molar mass. A value given as a limit tells only on which side of the number the result lay.

Consider `CC[C@H](C)[C@H](NC(=O)CNC(=O)[C@H](CO)NC(=O)[C@H](CC(C)C)NC(=O)[C@@H](NC(=O)[C@H](CCCN=C(N)N)NC(=O)CNC(=O)[C@@H](NC(=O)[C@H](CC(C)C)NC(=O)[C@@H]1CCCN1C(=O)[C@H](CC(C)C)NC(=O)[C@@H](N)CCCCN)[C@@H](C)CC)C(C)C)C(=O)N[C@@H](CC(C)C)C(N)=O` [KLPLIGRVLSGIL], for which the MIC (as a rule, the smallest concentration in the dilution series that meets the test's criterion for growth inhibition) in assay [1] is above 168 µM; in [2], at least 116 µM; in assay [3], 83.7 µM (≈ 115 µg/mL); in assay [4] it was at least 58.2 µM; in [5] it was at least 58.2 µM.
`CC[C@H](C)[C@H](NC(=O)[C@H](CCCCN)NC(=O)[C@H](CCCCN)NC(=O)[C@H](CC(C)C)NC(=O)[C@H](CCCN=C(N)N)NC(=O)[C@H](CCCCN)NC(=O)[C@H](CCCN=C(N)N)NC(=O)[C@H](CCCCN)NC(=O)[C@H](CCCCN)NC(=O)[C@H](CCCCN)NC(=O)[C@H](CCCN=C(N)N)NC(=O)[C@H](CC(C)C)NC(=O)[C@H](CCCN=C(N)N)NC(=O)[C@H](CCCN=C(N)N)NC(=O)[C@H](Cc1ccccc1)NC(=O)[C@@H](N)CCCN=C(N)N)C(N)=O` [RFRRLRKKKRKRLKKI]: the MIC in [6] was 128 µM (≈ 283 µg/mL); in assay [7] it was at least 256 µM; in [8], at least 256 µM; in assay [9] it was at least 256 µM; in [10], 128 µM (≈ 283 µg/mL); in assay [11] it was at least 256 µM. The MIC was at least 256 µM in assay [12]; at least 256 µM in assay [13]; at least 256 µM in assay [14]; at least 256 µM in [15]; 128 µM (≈ 283 µg/mL) in [16]; 128 µM (≈ 283 µg/mL) in assay [17].
`CC[C@H](C)[C@H](NC(=O)[C@H](CCCCN)NC(=O)[C@@H](NC(=O)[C@H](CCCN=C(N)N)NC(=O)[C@H](C)NC(=O)[C@H](CCC(=O)O)NC(=O)[C@H](CCC(=O)O)NC(=O)[C@@H]1CCCN1C(=O)[C@@H](N)CO)C(C)C)C(=O)N[C@@H](CC(C)C)C(=O)N[C@H](C(=O)N[C@@H](C)C(=O)N[C@H](C(=O)N1CCC[C@H]1C(=O)N[C@@H](CCC(=O)O)C(=O)N[C@@H](CCSC)C(=O)N[C@@H](CCCN=C(N)N)C(=O)N[C@@H](CCC(=O)O)C(=O)N[C@@H](CCC(=O)O)C(=O)N[C@@H](CC(=O)O)C(=O)N[C@@H](CC(C)C)C(=O)N[C@@H](CO)C(=O)N[C@@H](CCC(=O)O)C(=O)N[C@@H](CCC(=O)O)C(=O)O)[C@@H](C)CC)[C@@H](C)O` [SPEEARVKILTAIPEMREEDLSEE]: the MIC is at least 100 µM in [18], at least 100 µM in assay [19], above 100 µM in [6] and at least 100 µM in [20].
For the compound `CC[C@H](C)[C@H](NC(=O)[C@H](C)NC(=O)[C@H](CCCCN)NC(=O)[C@@H](NC(=O)CNC(=O)CNC(=O)[C@H](Cc1c[nH]c2ccccc12)NC(=O)[C@H](Cc1ccccc1)NC(=O)[C@H](CCCCN)NC(=O)[C@H](CCCCN)NC(=O)[C@H](Cc1ccccc1)NC(=O)[C@@H](N)CO)C(C)C)C(=O)N[C@@H](Cc1ccccc1)C(=O)N[C@@H](CCCCN)C(=O)NCC(=O)N[C@@H](C)C(=O)N[C@@H](CCCN=C(N)N)C(=O)N[C@@H](CCCCN)C(=O)NCC(=O)N[C@@H](Cc1c[nH]c2ccccc12)C(=O)N[C@@H](CCCCN)C(=O)O` [SFKKFWGGVKAIFKGARKGWK], the MIC in assay [6] was 1 µM (≈ 2.43 µg/mL); in assay [21], at least 32 µM; in assay [22] it was at least 32 µM.
Regarding `CC(C)C[C@H](NC(=O)[C@H](CCCCN)NC(=O)[C@H](CCC(=O)O)NC(=O)[C@H](CCCCN)NC(=O)[C@@H](NC(=O)[C@H](CCCCN)NC(=O)[C@H](CCCCN)NC(=O)[C@H](Cc1ccccc1)NC(=O)[C@H](Cc1cnc[nH]1)NC(=O)[C@H](CCC(=O)O)NC(=O)[C@H](CO)NC(=O)[C@H](Cc1ccccc1)NC(=O)[C@H](Cc1c[nH]c2ccccc12)NC(=O)[C@H](CC(N)=O)NC(=O)[C@H](CCCN=C(N)N)NC(=O)[C@@H](NC(=O)[C@H](CCCCN)NC(=O)[C@@H](NC(=O)[C@H](CO)NC(=O)[C@@H](N)Cc1ccccc1)[C@@H](C)O)[C@@H](C)O)C(C)C)C(=O)N[C@@H](CCCCN)C(=O)N[C@@H](CC(=O)O)C(=O)N[C@H](C(=O)N[C@@H](Cc1ccccc1)C(=O)N[C@@H](C)C(=O)O)[C@@H](C)O` [FSTKTRNWFSEHFKKVKEKLKDTFA], the MIC in assay [23] is at least 80.6 µM; in [24], at least 80.6 µM; in assay [25] it was above 80.6 µM; in assay [26] it was at least 80.6 µM.
Regarding `CC(C)C[C@H](NC(=O)[C@H](CC(C)C)NC(=O)[C@H](Cc1ccccc1)NC(=O)[C@H](CCCN=C(N)N)NC(=O)[C@H](CCCN=C(N)N)NC(=O)[C@H](CC(C)C)NC(=O)[C@H](Cc1cnc[nH]1)NC(=O)[C@H](CCCN=C(N)N)NC(=O)[C@H](CC(C)C)NC(=O)[C@@H](NC(=O)[C@H](C)NC(=O)[C@@H](N)CO)C(C)C)C(=O)N[C@@H](CCCN=C(N)N)C(=O)N[C@@H](CCCCN)C(=O)N[C@@H](Cc1cnc[nH]1)C(=O)N[C@@H](CCCN=C(N)N)C(=O)N[C@@H](CCCCN)C(=O)N[C@@H](Cc1cnc[nH]1)C(=O)O` [SAVLRHLRRFLLRKHRKH], the MIC was at least 100 µM in assay [27]; 1.56 µM (≈ 3.63 µg/mL) in assay [28]; at least 100 µM in assay [29]; 3.13 µM (≈ 7.27 µg/mL) in assay [30]; 3.13 µM (≈ 7.27 µg/mL) in assay [31]; at least 100 µM in [32]. For the same compound, the MIC in [33] was at least 100 µM; in assay [34] it was at least 100 µM; in assay [35], 4.69 µM (≈ 10.9 µg/mL); in [36] it was at least 100 µM; in [37], at least 100 µM; in assay [38], 1.56 µM (≈ 3.63 µg/mL).
`CC[C@H](C)[C@H](NC(=O)CNC(=O)[C@H](CCCCN)NC(=O)[C@H](Cc1ccccc1)NC(=O)[C@H](CC(C)C)NC(=O)[C@H](CCCCN)NC(=O)[C@H](Cc1c[nH]c2ccccc12)NC(=O)[C@@H](N)CCCCN)C(=O)N[C@@H](CCCN=C(N)N)C(=O)N[C@@H](C)C(=O)N[C@H](C(=O)N[C@@H](CC(C)C)C(=O)N[C@@H](CCCCN)C(=O)N[C@H](C(=O)N[C@@H](CC(C)C)C(=O)O)C(C)C)C(C)C` [KWKLFKGIRAVLKVL]: the MIC in assay [39] was found to be 2.22 µM (≈ 4 µg/mL); in assay [40], 4.45 µM (≈ 8 µg/mL).
